Data: publication PMC6634946 (The FEBS journal, 2019)

Legend:
Assay type in all cases: cell-based, human
U-2 OS cells [1] = assay: Western blot analysis of p53, p21 expression; settings: 24 hours, (R)-5a effect at 5 and 10 μM
U-2 OS cells [2] = assay: Real-time PCR of p53-target genes; settings: 6 hours, 10 μM (R)-5a, 5 μM RG7388, normalized to GAPDH
U-2 OS cells [3] = assay: Cell cycle analysis; settings: 24 hours, 5 μM, control 55%
SJSA-1 cells = assay: Caspase 3/7 activity assay; settings: SJSA-1, 24 or 48 hours
U-2 OS cells [4] = assay: Caspase 3/7 activity assay; settings: 24 or 48 hours

| Compound | expression of p53 and p21 protein (U-2 OS cells [1]) | MDM2 and CDKN1A transcripts (U-2 OS cells [2]) | percentage of S-phase cells (U-2 OS cells [3]) | induction of apoptosis (caspase 3/7 activity) (SJSA-1 cells) | induction of apoptosis (caspase 3/7 activity) (U-2 OS cells [4]) |
| --- | --- | --- | --- | --- | --- |
| COc1ccc(C2=N[C@@H](c3ccc(Cl)cc3)[C@@H](c3ccc(Cl)cc3)N2C(=O)N2CCNC(=O)C2)c(OC(C)C)c1 [Nutlin-3] | increased the expression of p21 and p53 | – | – | – | – |
| COc1cc(C(=O)O)ccc1NC(=O)[C@@H]1N[C@@H](CC(C)(C)C)[C@](C#N)(c2ccc(Cl)cc2F)[C@H]1c1cccc(Cl)c1F [RG7388, Idasanutlin] | increased the expression of p21 and p53 | significant increase of MDM2 and CDKN1A transcripts | 0.5% | induced apoptosis only in SJSA-1 cells | not in U-2 OS cells |
| CN[C@@H]1C[C@H]2O[C@@](C)([C@@H]1OC)n1c3ccccc3c3c4c(c5c6ccccc6n2c5c31)C(=O)NC4 [Staurosporine] | – | – | – | induced apoptosis in both cell lines | induced apoptosis in both cell lines |
